Data reported in article PMC12470154, “In Vitro Evaluation of Antimicrobial Amyloidogenic Peptides for the Treatment of Early and Mature Bacterial Biofilms” (International Journal of Molecular Sciences, 2025).

How the values were obtained:
E. coli (MG1655 strain) [1] = assay: Early biofilm formation, crystal violet staining; assay type: cell-based, Escherichia coli; set-up: key: ↓: Decrease in the parameter (optical density) compared to the negative control; −: No decrease in the parameter; ↑: Reverse effect (increase in the optical density compared to the control); details: peptide present from inoculation, 24 h, OD 595 nm
Description: (§1) After 24 h of incubation, the medium was removed. To assess the total biofilm biomass, the wells were rinsed with sterile PBS solution and stained with 0.1% crystal violet. The dye bound to the surface was then removed using 95% ethanol. To assess the presence of metabolically active cells, 0.3% MTT (PanEco Ltd., Moscow, Russia) solution was added to each well, and the plates were incubated at 37 °C for 2 h. After incubation, the MTT solution was removed, 150 µL of DMSO (Chimmed, Moscow, Russia) and 25 µL of glycine buffer were added to each well, and the plates were left at room temperature for 15 min. The resulting solutions were transferred to a flat-bottom 96-well plate, and optical density was measured at 595 nm.

[2] = test system: P. aeruginosa (2943 strain); assay: Early biofilm formation, crystal violet staining; assay type: cell-based, Pseudomonas aeruginosa; details: 24 h; for change of optical density after crystal violet staining vs negative control: peptide present from inoculation, OD 595 nm
Description: as §1

E. coli (MG1655 strain) [3] = assay: Early biofilm formation, MTT assay; assay type: cell-based, Escherichia coli; set-up: key: ↓: Decrease in the parameter (optical density) compared to the negative control; −: No decrease in the parameter; ↑: Reverse effect (increase in the optical density compared to the control); details: 24 h, 0.3% MTT 2 h 37 °C, OD 595 nm
Description: as §1

S. aureus (129B strain) [4] = assay: Early biofilm formation, crystal violet staining; assay type: cell-based, Staphylococcus aureus; set-up: key: ↓: Decrease in the parameter (optical density) compared to the negative control; −: No decrease in the parameter; ↑: Reverse effect (increase in the optical density compared to the control); details: peptide present from inoculation, 24 h, OD 595 nm
Description: as §1

E. coli (MG1655 strain) [5] = assay: Mature biofilms, crystal violet staining; assay type: cell-based, Escherichia coli; set-up: key: ↓: Decrease in the parameter (optical density) compared to the negative control; −: No decrease in the optical density; ↑: Reverse effect (increase in the optical density compared to the control); details: mature biofilm: peptide added after 24 h, further 24 h, 0.01-10 mg/mL
Description: as §1
(§2) A stationary-phase culture of the tested strain was diluted 100-fold in fresh medium (200 µL per well) and added to the wells of a 96-well round-bottom plate. […] After another 24 h, the medium was removed and the wells were rinsed with sterile PBS to eliminate planktonic cells. The procedures for assessing total biofilm biomass and cell metabolic activity using crystal violet and MTT assays were performed in the same manner as described above for early-stage biofilm experiments.

MRSA (SA 180-F strain) [6] = assay: Mature biofilms, MTT assay; assay type: cell-based, methicillin-resistant Staphylococcus aureus; set-up: key: ↓: Decrease in the parameter (optical density) compared to the negative control; −: No decrease in the parameter; ↑: Reverse effect (increase in the optical density compared to the control); details: mature biofilm: peptide added after 24 h, further 24 h; 0.01-10 mg/mL
Description: as §1, §2

MRSA (SA 180-F strain) [7] = assay: Mature biofilms, MTT assay; assay type: cell-based, methicillin-resistant Staphylococcus aureus; details: mature biofilm
Description: as §1, §2

MRSA (SA 180-F strain) [8] = assay: Early biofilm formation, crystal violet staining; assay type: cell-based, methicillin-resistant Staphylococcus aureus; set-up: key: ↓: Decrease in the parameter (optical density) compared to the negative control; −: No decrease in the parameter; ↑: Reverse effect (increase in the optical density compared to the control); details: peptide present from inoculation, 24 h, OD 595 nm
Description: as §1

[9] = test system: P. aeruginosa (2943 strain); assay: Early biofilm formation, MTT assay; assay type: cell-based, Pseudomonas aeruginosa; set-up: key: ↓: Decrease in the parameter (optical density) compared to the negative control; −: No decrease in the parameter; ↑: Reverse effect (increase in the optical density compared to the control); details: 24 h, 0.3% MTT 2 h 37 °C, OD 595 nm
Description: as §1

S. aureus (129B strain) [10] = assay: Antibacterial activity on 0.7% agar (inhibition zone); assay type: cell-based, Staphylococcus aureus; set-up: key: +: The presence of a bacterial growth inhibition zone; −: The absence of a bacterial growth inhibition zone; details: drop on 0.7% agar, 24 h
Description: Drops of the samples were applied to the surface of solidified 0.7% agar at the concentrations indicated in Table 2 and Supplementary S2 (Figures S1–S4). After 24 h of incubation, the results were evaluated based on the presence or absence (+/−) of inhibition zones.
Once the agar solidified, drops of peptide samples at the concentrations 1, 0.1, 0.01, and 0.001 mg/mL were applied to the agar surface.

MRSA (SA 180-F strain) [11] = assay: Early biofilm formation, crystal violet staining; assay type: cell-based, methicillin-resistant Staphylococcus aureus; details: for concentration given with ↓ (crystal violet): 24 h; for biofilm biomass following treatment (crystal violet): Table 3; for effectiveness compared to meropenem: tested concentrations 0.01, 0.1, 1, 10 mg/mL, crystal violet
Description: as §1

MRSA (SA 180-F strain) [12] = assay: Mature biofilms, crystal violet staining; assay type: cell-based, methicillin-resistant Staphylococcus aureus; set-up: key: ↓: Decrease in the parameter (optical density) compared to the negative control; −: No decrease in the optical density; ↑: Reverse effect (increase in the optical density compared to the control); details: mature biofilm: peptide added after 24 h, further 24 h; 0.01-10 mg/mL
Description: as §1, §2

[13] = test system: P. aeruginosa (2943 strain); assay: Mature biofilms, MTT assay; assay type: cell-based, Pseudomonas aeruginosa; set-up: key: ↓: Decrease in the parameter (optical density) compared to the negative control; −: No decrease in the optical density; ↑: Reverse effect (increase in the optical density compared to the control); details: mature biofilm: peptide added after 24 h, further 24 h, 0.01-10 mg/mL
Description: as §1, §2

## ITDFGIFIGLGGGGSRQIKIWFQNRRMKWKK [I31K^P]
E. coli (MG1655 strain) [1]
  change of optical density after crystal violet staining vs negative control: ↑
[2]
  change of optical density after crystal violet staining vs negative control: −
E. coli (MG1655 strain) [3]
  change of optical density after MTT assay vs negative control: ↑
S. aureus (129B strain) [4]
  change of optical density after crystal violet staining vs negative control: ↑
E. coli (MG1655 strain) [5]
  change of optical density after crystal violet staining vs negative control: −
MRSA (SA 180-F strain) [6]
  change of optical density after MTT assay vs negative control: ↓ (0.01 mg/mL)
MRSA (SA 180-F strain) [7]; 0.01, 0.1, 1, and 10 mg/mL
  metabolic activity of cells within mature biofilms (MTT): decreased the metabolic activity
MRSA (SA 180-F strain) [7]
  concentration given with ↓ (MTT): 0.01 mg/mL

## RKKRRQRRRGGGGITDFGIFIGL [R23L^P]
E. coli (MG1655 strain) [1]
  change of optical density after crystal violet staining vs negative control: ↑
[2]
  concentration given with ↓ (crystal violet): 10 mg/mL
  change of optical density after crystal violet staining vs negative control: ↓ (10 mg/mL)
E. coli (MG1655 strain) [3]
  change of optical density after MTT assay vs negative control: ↑
S. aureus (129B strain) [4]
  change of optical density after crystal violet staining vs negative control: ↑
MRSA (SA 180-F strain) [8]
  change of optical density after crystal violet staining vs negative control: ↓ (10 mg/mL)
[9]
  change of optical density after MTT assay vs negative control: ↑
S. aureus (129B strain) [10]; 0.001 mg/mL
  bacterial growth inhibition zone: −
S. aureus (129B strain) [10]; 0.01 mg/mL
  bacterial growth inhibition zone: −
S. aureus (129B strain) [10]; 0.1 mg/mL
  bacterial growth inhibition zone: −
S. aureus (129B strain) [10]; 1 mg/mL
  bacterial growth inhibition zone: +
MRSA (SA 180-F strain) [11]; 0.01 mg/mL, Figure 1
  effect on MRSA biofilm formation (crystal violet staining intensity): inhibitory effect
MRSA (SA 180-F strain) [11]
  concentration given with ↓ (crystal violet): 10 mg/mL
  biofilm biomass following treatment (crystal violet): marked reduction in biofilm biomass
MRSA (SA 180-F strain) [11]; Figure 1
  effectiveness compared to meropenem: less effective compared to meropenem
MRSA (SA 180-F strain) [12]
  change of optical density after crystal violet staining vs negative control: −
MRSA (SA 180-F strain) [6]
  change of optical density after MTT assay vs negative control: ↓ (0.01 mg/mL)
MRSA (SA 180-F strain) [7]
  concentration given with ↓ (MTT): 0.01 mg/mL

## RKKRRQRRRGGGGVTDFGVFVEI [R23I^T, TAT cell-penetrating peptide linked via glycine linker to amyloidogenic fragment of S1 ribosomal protein of T. thermophilus]
E. coli (MG1655 strain) [1]
  change of optical density after crystal violet staining vs negative control: ↑
[2]
  change of optical density after crystal violet staining vs negative control: −
E. coli (MG1655 strain) [3]
  change of optical density after MTT assay vs negative control: ↑
S. aureus (129B strain) [4]
  change of optical density after crystal violet staining vs negative control: ↑
E. coli (MG1655 strain) [5]
  change of optical density after crystal violet staining vs negative control: −
S. aureus (129B strain) [10]; 0.001 mg/mL
  bacterial growth inhibition zone: −
S. aureus (129B strain) [10]; 0.01 mg/mL
  bacterial growth inhibition zone: −
S. aureus (129B strain) [10]; 0.1 mg/mL
  bacterial growth inhibition zone: −
S. aureus (129B strain) [10]; 1 mg/mL
  bacterial growth inhibition zone: +
[13]
  change of optical density after MTT assay vs negative control: −
MRSA (SA 180-F strain) [12]
  change of optical density after crystal violet staining vs negative control: −

## RKKRRQRRRGGGGVVVHINGGKFGGGGSRQIKIWFQNRRMKWKK [R44K^S]
E. coli (MG1655 strain) [1]
  change of optical density after crystal violet staining vs negative control: ↑
[2]
  concentration given with ↓ (crystal violet): 10 mg/mL
  change of optical density after crystal violet staining vs negative control: ↓ (10 mg/mL)
E. coli (MG1655 strain) [3]; listed as R44K^P
  change of optical density after MTT assay vs negative control: ↑
S. aureus (129B strain) [4]
  change of optical density after crystal violet staining vs negative control: ↑
MRSA (SA 180-F strain) [8]
  change of optical density after crystal violet staining vs negative control: ↓ (1 mg/mL)
MRSA (SA 180-F strain) [8]; listed as R44K^P
  change of optical density after crystal violet staining vs negative control: ↓ (10 mg/mL)
[9]; listed as R44K^P
  change of optical density after MTT assay vs negative control: ↓ (10 mg/mL)
E. coli (MG1655 strain) [5]; listed as R44K^P
  change of optical density after crystal violet staining vs negative control: −
S. aureus (129B strain) [10]; 0.001 mg/mL
  bacterial growth inhibition zone: −
S. aureus (129B strain) [10]; 0.01 mg/mL
  bacterial growth inhibition zone: −
S. aureus (129B strain) [10]; 0.1 mg/mL
  bacterial growth inhibition zone: −
S. aureus (129B strain) [10]; 1 mg/mL
  bacterial growth inhibition zone: +
[13]; listed as R44K^P
  change of optical density after MTT assay vs negative control: −
MRSA (SA 180-F strain) [11]; 1 and 10 mg/mL, Figure 1, two independent replicates
  effect on MRSA biofilm formation (crystal violet staining intensity): inhibitory effect
MRSA (SA 180-F strain) [11]
  concentration given with ↓ (crystal violet): 1 mg/mL
  biofilm biomass following treatment (crystal violet): marked reduction in biofilm biomass
MRSA (SA 180-F strain) [11]; listed as R44K^P
  concentration given with ↓ (crystal violet): 10 mg/mL
MRSA (SA 180-F strain) [11]; Figure 1
  effectiveness compared to meropenem: less effective compared to meropenem
MRSA (SA 180-F strain) [6]
  change of optical density after MTT assay vs negative control: ↓ (0.01 mg/mL)
MRSA (SA 180-F strain) [7]
  concentration given with ↓ (MTT): 0.01 mg/mL

## VTDFGVFVEIGGGGSRQIKIWFQNRRMKWKK [V31K^T, amyloidogenic fragment of S1 of T. thermophilus linked via glycine-rich linker to antennapedia peptide]
E. coli (MG1655 strain) [1]
  change of optical density after crystal violet staining vs negative control: ↑
[2]
  concentration given with ↓ (crystal violet): 10 mg/mL
  change of optical density after crystal violet staining vs negative control: −
[2]; listed as V31K^S
  change of optical density after crystal violet staining vs negative control: ↓ (10 mg/mL)
S. aureus (129B strain) [4]
  change of optical density after crystal violet staining vs negative control: ↑
MRSA (SA 180-F strain) [8]
  change of optical density after crystal violet staining vs negative control: ↑
MRSA (SA 180-F strain) [8]; listed as V31K^S
  change of optical density after crystal violet staining vs negative control: ↓ (10 mg/mL)
[9]; listed as V31K^S
  change of optical density after MTT assay vs negative control: ↓ (10 mg/mL)
E. coli (MG1655 strain) [5]; listed as V31K^S
  change of optical density after crystal violet staining vs negative control: −
S. aureus (129B strain) [10]; 0.001 mg/mL
  bacterial growth inhibition zone: −
S. aureus (129B strain) [10]; 0.01 mg/mL
  bacterial growth inhibition zone: −
S. aureus (129B strain) [10]; 0.1 mg/mL
  bacterial growth inhibition zone: −
S. aureus (129B strain) [10]; 1 mg/mL
  bacterial growth inhibition zone: −
[13]; listed as V31K^S
  change of optical density after MTT assay vs negative control: −
MRSA (SA 180-F strain) [11]; 0.01 mg/mL, Figure 1
  effect on MRSA biofilm formation (crystal violet staining intensity): inhibitory effect
MRSA (SA 180-F strain) [11]; 10 mg/mL, Figure 1
  effect on MRSA biofilm formation (crystal violet staining intensity): reversed
MRSA (SA 180-F strain) [11]
  concentration given with ↓ (crystal violet): 10 mg/mL
  biofilm biomass following treatment (crystal violet): marked reduction in biofilm biomass
MRSA (SA 180-F strain) [11]; Figure 1
  effectiveness compared to meropenem: less effective compared to meropenem
MRSA (SA 180-F strain) [12]
  change of optical density after crystal violet staining vs negative control: −
MRSA (SA 180-F strain) [6]
  change of optical density after MTT assay vs negative control: ↓ (0.01 mg/mL)
MRSA (SA 180-F strain) [7]
  concentration given with ↓ (MTT): 0.01 mg/mL
